# Where two headings read alike, the source gives them in different places.
# How the values were obtained:
# TNF-α = TNF-α production in M. smegmatis-infected RAW 264.7 cells (ELISA); assay type: cell-based, murine; settings: 15 μM, 24 h, M. smegmatis MOI 1:1, vs infected control
# Experimental: (§1) IL-1β, IL-10, and TNF-α levels in the culture supernatant were determined by sandwich enzyme-linked immunosorbent assay as per the manufacturer’s instructions. Optical density was read at 450 nm using a microplate spectrophotometer (microplate reader EL800, BioTek, Winooski, VT, USA).
# Vero E6 cells [1] = assay: Cytotoxicity on Vero E6 cells (MTT); assay type: cell-based, monkey; settings: 24 h; for effect on Vero E6 cell viability: 30 to 120 µM, MTT; for IC50: Primates, Vero C1008, estimated
# Experimental: Cytotoxicity was evaluated using the MTT method. For this purpose, two cell lines were tested: Vero E6 and HepG2. Both cell lines were seeded at 1 × 10^4 cells/well in 96-well microtiter plates and incubated overnight to adhere. The culture medium was carefully aspirated and replaced with 100 µL DMEM plus 100 µL of test compound solutions (CP, CA, and DE), yielding final concentrations ranging from 30 to 120 µM (1% DMSO, v/v). Cells were incubated with test compounds for 24 h at 37 °C in a 5% CO2 atmosphere. MTT solution (0.5 mg/mL) was subsequently added, and cells were incubated for an additional 3 h. The resulting formazan crystals were dried at room temperature for 24 h and dissolved in DMSO. Absorbance was measured at 570 nm (microplate reader EL800, BioTek, Winooski, VT, USA). Cell viability was calculated as previously described in the RAW 264.7 cell viability assay section.
# Artemia salina = Artemia salina toxicity test; settings: 24 h; for effect on A. salina nauplii survival: 30 to 120 µM; for IC50: Artemia salina, estimated
# Experimental: Artemia salina (brine shrimp) survival was determined after incubation with CP and its analogues following the method described by Magalhães et al.. A. salina cysts were purchased from a local aquarium store and hatched (0.5 g cysts/L) in modified artificial seawater (35 g/L sea salt) supplemented with dried yeast (6 mg/L). Aeration was provided using an aquarium air pump connected to a line extending to the bottom of the hatching vessel. After 2 days incubation (in a 23–25 °C room), nauplii were collected using a Pasteur pipette after attracting the organisms to one side of the vessel with a light source. Test compounds were serially diluted 2-fold (ranging from 30 to 120 µM) in 96-well microplates containing 100 µL of 0.9% NaCl solution with dried yeast (6 mg/L). All experiments were performed in quadruplicate with a final DMSO concentration of 2.5%. Vehicle control wells (with 2.5% DMSO) were included in the experiment. A suspension containing 8–12 nauplii in 100 µL was added to each well, and the plates were incubated at 23–25 °C for 24 h. The number of live and dead (non-motile) nauplii in each well was then counted under a microscope. Nauplii were considered dead if they remained immobile for 10 s under light exposure. The survival percentage for each test group was calculated relative to the control group (2.5% DMSO), which was set as 100%.
# [2] = system: Mycobacterium smegmatis mc2155; assay: M. smegmatis susceptibility by CFU enumeration; assay type: cell-based; settings: 24 h incubation, CFU
# IL-1β = IL-1β production in M. smegmatis-infected RAW 264.7 cells (ELISA); assay type: cell-based, murine; settings: 15 μM, 24 h, M. smegmatis MOI 1:1, vs infected control
# Experimental: as §1
# [3] = system: M. tuberculosis H37Ra in RAW 264.7 macrophages; assay: Therapeutic potential in M. tuberculosis-infected RAW 264.7 cells (CFU); assay type: cell-based, Mycobacterium tuberculosis; settings: for effect on M. tuberculosis in RAW 264.7: DE 15 μM, CA 30 and 15 μM, 24 h and 48 h
# Experimental: For the infection test with M. tuberculosis H37Ra, RAW 264.7 were seeded in 96-well culture plates at a density of 4 × 10^3 cells/well in DMEM medium (with 10% FBS, without antibiotics) and incubated overnight at 37 °C with 5% CO2 [20]. Infection of RAW 264.7 cells with M. tuberculosis was performed at a multiplicity of infection of 1:1 for 3 h at 37 °C with 5% CO2. The medium with non-internalized bacteria was removed and infected cells were then treated with the tested substances in DMEM:CP (15 µM, 7.5 µM, and 3.25 µM), CA (30 µM), and DE (15 µM) for 24 h and CA (30 µM and 15 µM) and DE (15 µM) for 48 h. Macrophages were lysed after incubations with 0.1% Triton–X100, and these suspensions were diluted and plated on Middlebrook 7H10 plus 10% OADC. Plates were incubated for 4 weeks at 37 °C and data were expressed as log10(CFU/well).
# NLRP3 inflammasome = assay: NLRP3 evaluation by flow cytometry in M. smegmatis-infected RAW 264.7 cells; assay type: cell-based, murine; settings: 15 μM, 24 h
# Experimental: Cells were placed in a 96-well plate (U bottom) 24 h after treatment in culture. Then, cells were fixed by Cytofix (BD Cytofix™, Franklin Lakes, NJ, USA) and permeabilized by Perm Buffer (BD Phosflow™, San Diego, CA, USA) for 30 min each. Cells were subsequently labeled with an unconjugated anti-NLRP3 antibody, according to the manufacturer’s instructions (BD Biosciences, San Diego, CA, USA). Finally, anti-rat IgG2a (PE) was added for NLRP3 analysis and cells were suspended in PBS and evaluated in a BD Accuri C6 Plus flow cytometer.
# First, macrophages were visualized using size (FSC) and granularity (SSC) parameters, and a gate was performed in the cell population. The macrophages were then analyzed by measuring the median fluorescence intensity (MFI) corresponding to antibody labeling. MFI data were normalized to the control group, which was set to 100%.
# HepG2 cells = system: HepG2 cells; set-up: method as in PMID 32579063; settings: 15.80 to 500 µg/mL over 24 h; cited from earlier work
# [4] = system: IL-8, IL-6, and TNF-α cytokines; set-up: method as in PMID 34884957; settings: pretreatment, compared with untreated control; cited from earlier work
# [5] = system: IFN-γ, IL-6, and TNF-α levels; set-up: method as in PMID 30205459; settings: doses of 40 mg/kg, murine model of peritonitis and ulcerative colitis; cited from earlier work
# Vero E6 cells [6] = settings: cited from earlier work
Structure (SMILES),reduction in TNF-α production (TNF-α) [%],effect on Vero E6 cell viability (Vero E6 cells [1]),IC50 (Vero E6 cells [1]) [µM],effect on A. salina nauplii survival (Artemia salina),IC50 (Artemia salina) [µM],inhibitory concentration against M. smegmatis [2],reduction in IL-1β production (IL-1β) [%],effect on M. tuberculosis in RAW 264.7 [3],reduction of NLRP3 expression (MFI) (NLRP3 inflammasome) [%],anticancer activity in HepG2 cells (HepG2 cells),"effect on IL-8, IL-6, and TNF-α expression [4]","effect on M. tuberculosis in RAW 264.7, lower concentrations ([3]; 7.5 µM and 3.25 µM, 24 h)","decrease in CFU counts, M. tuberculosis in RAW 264.7 ([3]; 15 μM, 24 h of incubation) [log10]","effect on IFN-γ, IL-6, and TNF-α levels [5]",effect on Vero E6 viability (Vero E6 cells [6]; 589.3 µg/mL),effect on Vero E6 viability (Vero E6 cells [6]; 50 to 1000 µM for 72 h)
"CCOC(=O)/C1=C/c2c([nH]c3ccccc23)/C(C(=O)OCC)=C\c2c1[nH]c1ccccc21 [DE, (6E,13E)-diethyl 5,12-dihydrocycloocta[1,2-b:5,6-b′]diindole-6,13-dicarboxylate]",56.94,did not significantly reduce cell viability,> 120,did not affect nauplii survival rates,> 120,higher than 15 μM,59.82,neither DE nor CA showed inhibitory effects at either timepoint,39.81,,,,,,,
"O=C(O)C1=Cc2c([nH]c3ccccc23)C(C(=O)O)=Cc2c1[nH]c1ccccc21 [CA, caulerpinic acid]",,did not significantly reduce cell viability,> 120,did not affect nauplii survival rates,> 120,higher than 30 μM,,neither DE nor CA showed inhibitory effects at either timepoint,,,,,,,,
"COC(=O)/C1=C/c2c([nH]c3ccccc23)/C(C(=O)OC)=C\c2c1[nH]c1ccccc21 [CP, Caulerpin]",34.07,did not significantly reduce cell viability,> 120,did not affect nauplii survival rates,> 120,higher than 15 μM,69.35,,29.12,exhibited anticancer activity in HepG2 cells,"reduced expression of IL-8, IL-6, and TNF-α cytokines",no inhibitory effect,0.250,"reduced IFN-γ, IL-6, and TNF-α levels",maintained their viability,no effect on Vero E6 viability
